In brackets after ≈: the same amount, converted by molar mass.
Assay: Equilibrium solubility by HPLC
Format: physicochemical
[1] = comparative equilibrium solubility (Table 2), solvent 0.1 N HCl
[2] = comparative equilibrium solubility (Table 2), solvent PEG 400
[3] = comparative equilibrium solubility (Table 2), solvent Phosphate Buffer, pH 7.4

Solubility [1] | Solubility [2] | Solubility [3] | Solubility (equilibrium solubility, solvent 0.1 N HCl) | Solubility (equilibrium solubility, solvent 10% Cremophor RH 40) | Solubility (equilibrium solubility, solvent 10% Polysorbate 80) | Solubility (equilibrium solubility, solvent 20% Polyethylene Glycol (PEG) 400) | Solubility (equilibrium solubility, solvent 20% Propylene Glycol) | Solubility (equilibrium solubility, solvent 30% HP-Beta-Cyclodextrin) | Solubility (equilibrium solubility, solvent Acetate Buffer, pH 4.0) | Solubility (equilibrium solubility, solvent Ethanol) | Solubility (equilibrium solubility, solvent Phosphate Buffer, pH 7.4) | Solubility (equilibrium solubility, solvent Polyethylene Glycol (PEG) 400) | Solubility (equilibrium solubility, solvent Propylene Glycol) | Compound
0.308 mg/mL | 34.5 mg/mL | 0.039 mg/mL |  |  |  |  |  |  |  |  |  |  |  | CN1CC(=O)N/C1=N\C(=O)Nc1cccc(Cl)c1.O [Fenobam Monohydrate]
0.303 mg/mL | 5.65 mg/mL | 0.027 mg/mL |  |  |  |  |  |  |  |  |  |  |  | CN1CC(=O)N=C1NC(=O)Nc1cccc(Cl)c1.O=S(=O)(O)O [Fenobam Sulfate]
0.392 mg/mL (≈ 1470 µM) | 24.4 mg/mL (≈ 91500 µM) | 0.033 mg/mL (≈ 124 µM) | 0.392 mg/mL (≈ 1470 µM) | 0.643 mg/mL (≈ 2410 µM) | 1.19 mg/mL (≈ 4460 µM) | 0.124 mg/mL (≈ 465 µM) | 0.065 mg/mL (≈ 244 µM) | 2.19 mg/mL (≈ 8210 µM) | 0.025 mg/mL (≈ 93.7 µM) | 2.90 mg/mL (≈ 10900 µM) | 0.033 mg/mL (≈ 124 µM) | 24.4 mg/mL (≈ 91500 µM) | 4.46 mg/mL (≈ 16700 µM) | CN1CC(=O)NC1=NC(=O)Nc1cccc(Cl)c1 [Fenobam]
